Test results from PubChem BioAssay (NCI).
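In this assay, cells in 96-well plates receive the compound at five concentrations for 48 hours. Endpoints are linearly interpolated between the surrounding concentrations. Here, GI50 denotes the concentration required for 50% inhibition of growth. TGI is the concentration that stops growth completely.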

System: IGROV1 ovarian
Test: NCI-60 cell line screen, 48 h

Q: `CC12CCC(=O)C[C@H]1CCC(OC=O)C2Br` (stereo partly specified) was tested. Which TGI did it give?
A: The TGI was over 100 µM.

Q: How did the TGI turn out when `COc1ccc(OCC(=O)O)c2c1CCCC2=O` was run?
A: The TGI was over 100 µM.

Q: Which TGI does the source give for `Cc1nc(Nc2ccc(Cl)cc2)sc1C(=O)NNC(=S)NN` here?
A: The TGI was 63 µM.

Q: For `COc1ccc2c(c1OCC(=O)O)C(=O)C(CCC(=O)O)CC2` (stereo unspecified), which TGI is on record?
A: The TGI was over 100 µM.

Q: `Cc1ccc2nc(/C(=C/c3ccc(/C=C(\NC(=O)c4ccccc4)c4nc5ccc(C)cc5[nH]4)c(C)c3)NC(=O)c3ccccc3)[nH]c2c1` was tested. Which TGI did it give?
A: The TGI was over 100 µM.

Q: For `COC1C(OC(=S)Nc2ccccc2)c2ccccc2N1C(C)=O` (stereo unspecified), which TGI is on record?
A: Its TGI is over 100 µM.

Q: For `CC1=Cc2cccc(C)c2C(=O)C1=O`, which TGI is on record?
A: Its TGI is 29.2 µM.

Q: How did the TGI turn out when `Cc1ccc(C)c(NC(=O)c2cccc([N+](=O)[O-])c2O)c1` was run?
A: The TGI was over 100 µM.

Q: For `N#CC(C(=O)/C(=N\NC(N)=O)C(C#N)c1ccc(Cl)cc1)c1ccc(Cl)cc1` (stereo unspecified), which TGI is on record?
A: The TGI was over 100 µM.

Q: Which TGI does the source give for `CC(C)(C)c1cc(C(P(=O)(O)O)P(=O)(O)O)cc(C(C)(C)C)c1O` here?
A: The TGI was over 100 µM.

Q: For `COc1c(O)c2c(=O)cc3c4c5c(cc(=O)c6c(O)c(OC)c(CC(C)O)c(c(c1CC(C)O)c24)c65)OCO3` (stereo unspecified), which TGI is on record?
A: The TGI was 4.63 µM.

Q: With `O=C1CCC2(c3ccc(Cl)cc3)Nc3cc(Cl)ccc3N12` (stereo unspecified) as the compound, how does the TGI read?
A: The TGI was 28.7 µM.

Q: Which TGI does the source give for `CC1(C)COC(c2cccc3c2C(=O)c2cccc(Cl)c2-3)=N1` here?
A: The TGI was over 100 µM.

Q: Which TGI does the source give for `CN(C)CCC(/C=C/c1ccccc1)=N\Nc1ccccc1` here?
A: The TGI was 16.5 µM.

Q: `CCOC(=O)c1ccc(/C(C)=N/NC(N)=S)cc1` was tested. Which TGI did it give?
A: The TGI was over 100 µM.

Q: Which TGI does the source give for `Cc1cc2c(=O)c3ccccc3[nH]c2c(C(N)=O)c1C` here?
A: The TGI was over 100 µM.

Q: `O=C(Nc1cccc(C(F)(F)F)c1)c1ccc(NC2=C(Cl)C(=O)N(Cc3ccc(Cl)cc3Cl)C2=O)cc1` was tested. Which GI50 did it give?
A: The GI50 was 2.01 µM.

Q: What about the TGI of the same compound?
A: Its TGI is 4.56 µM.

System: K-562 leukemia
Test: NCI-60 cell line screen, 48 h

Q: `COC(=O)C(=Cc1cc(OC)c(OC)c(OC)c1-c1cc2c(cc1C1(C)OCCS1)OCO2)C(=O)OC` (stereo unspecified) was tested. Which TGI did it give?
A: The TGI was over 100 µM.

Q: With `C#CC1/C(=C\C(=O)OC)CCCC1O` (stereo unspecified) as the compound, how does the TGI read?
A: Its TGI is over 100 µM.

Q: For `CC12CCC(=O)C[C@H]1CCC(OC=O)C2Br` (stereo partly specified), which TGI is on record?
A: The TGI was over 100 µM.

Q: Which TGI does the source give for `COc1ccc(OCC(=O)O)c2c1CCCC2=O` here?
A: The TGI was over 100 µM.

Q: For `Cc1nc(Nc2ccc(Cl)cc2)sc1C(=O)NNC(=S)NN`, which TGI is on record?
A: The TGI was 99 µM.

Q: With `Cc1ccc2nc(/C(=C/c3ccc(/C=C(\NC(=O)c4ccccc4)c4nc5ccc(C)cc5[nH]4)c(C)c3)NC(=O)c3ccccc3)[nH]c2c1` as the compound, how does the TGI read?
A: The TGI was 45.4 µM.

Q: For `COC1C(OC(=S)Nc2ccccc2)c2ccccc2N1C(C)=O` (stereo unspecified), which TGI is on record?
A: Its TGI is over 100 µM.

Q: For `Cc1ccc(C)c(NC(=O)c2cccc([N+](=O)[O-])c2O)c1`, which TGI is on record?
A: Its TGI is over 100 µM.

Q: For `N#CC(C(=O)/C(=N\NC(N)=O)C(C#N)c1ccc(Cl)cc1)c1ccc(Cl)cc1` (stereo unspecified), which TGI is on record?
A: The TGI was over 100 µM.

Q: Which TGI does the source give for `CC(C)(C)c1cc(C(P(=O)(O)O)P(=O)(O)O)cc(C(C)(C)C)c1O` here?
A: Its TGI is over 100 µM.

Q: Which TGI does the source give for `COc1c(O)c2c(=O)cc3c4c5c(cc(=O)c6c(O)c(OC)c(CC(C)O)c(c(c1CC(C)O)c24)c65)OCO3` (stereo unspecified) here?
A: Its TGI is 43.3 µM.

Q: With `O=C1CCC2(c3ccc(Cl)cc3)Nc3cc(Cl)ccc3N12` (stereo unspecified) as the compound, how does the TGI read?
A: The TGI was 14.1 µM.

Q: `CC1(C)COC(c2cccc3c2C(=O)c2cccc(Cl)c2-3)=N1` was tested. Which TGI did it give?
A: Its TGI is over 100 µM.

Q: With `CN(C)CCC(/C=C/c1ccccc1)=N\Nc1ccccc1` as the compound, how does the TGI read?
A: The TGI was 10.5 µM.

Q: For `CCOC(=O)c1ccc(/C(C)=N/NC(N)=S)cc1`, which TGI is on record?
A: The TGI was over 100 µM.

Q: For `Cc1cc2c(=O)c3ccccc3[nH]c2c(C(N)=O)c1C`, which TGI is on record?
A: The TGI was over 100 µM.

Q: `O=C(Nc1cccc(C(F)(F)F)c1)c1ccc(NC2=C(Cl)C(=O)N(Cc3ccc(Cl)cc3Cl)C2=O)cc1` was tested. Which GI50 did it give?
A: The GI50 was 1.83 µM.

Q: And the TGI?
A: Its TGI is 4.49 µM.

System: MALME-3M melanoma
Test: NCI-60 cell line screen, 48 h

Q: How did the TGI turn out when `COC(=O)C(=Cc1cc(OC)c(OC)c(OC)c1-c1cc2c(cc1C1(C)OCCS1)OCO2)C(=O)OC` (stereo unspecified) was run?
A: Its TGI is over 100 µM.

Q: Which TGI does the source give for `C#CC1/C(=C\C(=O)OC)CCCC1O` (stereo unspecified) here?
A: The TGI was over 100 µM.

Q: Which TGI does the source give for `CC12CCC(=O)C[C@H]1CCC(OC=O)C2Br` (stereo partly specified) here?
A: The TGI was over 100 µM.

Q: Which TGI does the source give for `COc1ccc(OCC(=O)O)c2c1CCCC2=O` here?
A: Its TGI is over 100 µM.

Q: With `Cc1nc(Nc2ccc(Cl)cc2)sc1C(=O)NNC(=S)NN` as the compound, how does the TGI read?
A: The TGI was 35.5 µM.

Q: For `Cc1ccc2nc(/C(=C/c3ccc(/C=C(\NC(=O)c4ccccc4)c4nc5ccc(C)cc5[nH]4)c(C)c3)NC(=O)c3ccccc3)[nH]c2c1`, which TGI is on record?
A: Its TGI is 59.9 µM.

Q: Which TGI does the source give for `CC1=Cc2cccc(C)c2C(=O)C1=O` here?
A: The TGI was 3.26 µM.

Q: Which TGI does the source give for `Cc1ccc(C)c(NC(=O)c2cccc([N+](=O)[O-])c2O)c1` here?
A: The TGI was 81.6 µM.

Q: `N#CC(C(=O)/C(=N\NC(N)=O)C(C#N)c1ccc(Cl)cc1)c1ccc(Cl)cc1` (stereo unspecified) was tested. Which TGI did it give?
A: The TGI was over 100 µM.

Q: For `COc1c(O)c2c(=O)cc3c4c5c(cc(=O)c6c(O)c(OC)c(CC(C)O)c(c(c1CC(C)O)c24)c65)OCO3` (stereo unspecified), which TGI is on record?
A: Its TGI is 1.27 µM.

Q: With `O=C1CCC2(c3ccc(Cl)cc3)Nc3cc(Cl)ccc3N12` (stereo unspecified) as the compound, how does the TGI read?
A: Its TGI is 24.5 µM.

Q: `CC1(C)COC(c2cccc3c2C(=O)c2cccc(Cl)c2-3)=N1` was tested. Which TGI did it give?
A: Its TGI is over 100 µM.

Q: `CN(C)CCC(/C=C/c1ccccc1)=N\Nc1ccccc1` was tested. Which TGI did it give?
A: The TGI was 13.1 µM.

Q: For `Cc1cc2c(=O)c3ccccc3[nH]c2c(C(N)=O)c1C`, which TGI is on record?
A: Its TGI is over 100 µM.

System: SK-MEL-2 melanoma
Test: NCI-60 cell line screen, 48 h

Q: Which TGI does the source give for `COC(=O)C(=Cc1cc(OC)c(OC)c(OC)c1-c1cc2c(cc1C1(C)OCCS1)OCO2)C(=O)OC` (stereo unspecified) here?
A: The TGI was 69.6 µM.

Q: `C#CC1/C(=C\C(=O)OC)CCCC1O` (stereo unspecified) was tested. Which TGI did it give?
A: The TGI was over 100 µM.

Q: Which TGI does the source give for `CC12CCC(=O)C[C@H]1CCC(OC=O)C2Br` (stereo partly specified) here?
A: The TGI was over 100 µM.

Q: Which TGI does the source give for `COc1ccc(OCC(=O)O)c2c1CCCC2=O` here?
A: Its TGI is over 100 µM.

Q: How did the TGI turn out when `Cc1nc(Nc2ccc(Cl)cc2)sc1C(=O)NNC(=S)NN` was run?
A: Its TGI is 33.4 µM.

Q: For `Cc1ccc2nc(/C(=C/c3ccc(/C=C(\NC(=O)c4ccccc4)c4nc5ccc(C)cc5[nH]4)c(C)c3)NC(=O)c3ccccc3)[nH]c2c1`, which TGI is on record?
A: The TGI was 33.3 µM.

Q: For `COC1C(OC(=S)Nc2ccccc2)c2ccccc2N1C(C)=O` (stereo unspecified), which TGI is on record?
A: The TGI was over 100 µM.

Q: `CC1=Cc2cccc(C)c2C(=O)C1=O` was tested. Which TGI did it give?
A: Its TGI is 31.9 µM.

Q: How did the TGI turn out when `N#CC(C(=O)/C(=N\NC(N)=O)C(C#N)c1ccc(Cl)cc1)c1ccc(Cl)cc1` (stereo unspecified) was run?
A: The TGI was over 100 µM.

Q: With `CC(C)(C)c1cc(C(P(=O)(O)O)P(=O)(O)O)cc(C(C)(C)C)c1O` as the compound, how does the TGI read?
A: The TGI was over 100 µM.

Q: Which TGI does the source give for `COc1c(O)c2c(=O)cc3c4c5c(cc(=O)c6c(O)c(OC)c(CC(C)O)c(c(c1CC(C)O)c24)c65)OCO3` (stereo unspecified) here?
A: The TGI was 3.57 µM.

Q: With `O=C1CCC2(c3ccc(Cl)cc3)Nc3cc(Cl)ccc3N12` (stereo unspecified) as the compound, how does the TGI read?
A: The TGI was 23.8 µM.

Q: With `CC1(C)COC(c2cccc3c2C(=O)c2cccc(Cl)c2-3)=N1` as the compound, how does the TGI read?
A: Its TGI is over 100 µM.

Q: With `Cc1cc2c(=O)c3ccccc3[nH]c2c(C(N)=O)c1C` as the compound, how does the TGI read?
A: The TGI was over 100 µM.

Q: Which results are given for `O=C(Nc1cccc(C(F)(F)F)c1)c1ccc(NC2=C(Cl)C(=O)N(Cc3ccc(Cl)cc3Cl)C2=O)cc1`?
A: GI50: 10.9 µM; TGI: 25.6 µM

System: TK-10 renal
Test: NCI-60 cell line screen, 48 h

Q: For `COC(=O)C(=Cc1cc(OC)c(OC)c(OC)c1-c1cc2c(cc1C1(C)OCCS1)OCO2)C(=O)OC` (stereo unspecified), which TGI is on record?
A: The TGI was over 100 µM.

Q: `C#CC1/C(=C\C(=O)OC)CCCC1O` (stereo unspecified) was tested. Which TGI did it give?
A: The TGI was over 100 µM.

Q: `CC12CCC(=O)C[C@H]1CCC(OC=O)C2Br` (stereo partly specified) was tested. Which TGI did it give?
A: The TGI was over 100 µM.

Q: Which TGI does the source give for `COc1ccc(OCC(=O)O)c2c1CCCC2=O` here?
A: Its TGI is over 100 µM.

Q: Which TGI does the source give for `Cc1nc(Nc2ccc(Cl)cc2)sc1C(=O)NNC(=S)NN` here?
A: The TGI was 45.1 µM.

Q: For `Cc1ccc2nc(/C(=C/c3ccc(/C=C(\NC(=O)c4ccccc4)c4nc5ccc(C)cc5[nH]4)c(C)c3)NC(=O)c3ccccc3)[nH]c2c1`, which TGI is on record?
A: Its TGI is 88 µM.

Q: With `CC1=Cc2cccc(C)c2C(=O)C1=O` as the compound, how does the TGI read?
A: Its TGI is 4.75 µM.

Q: With `CC(C)(C)c1cc(C(P(=O)(O)O)P(=O)(O)O)cc(C(C)(C)C)c1O` as the compound, how does the TGI read?
A: Its TGI is over 100 µM.

Q: How did the TGI turn out when `COc1c(O)c2c(=O)cc3c4c5c(cc(=O)c6c(O)c(OC)c(CC(C)O)c(c(c1CC(C)O)c24)c65)OCO3` (stereo unspecified) was run?
A: The TGI was 8.12 µM.

Q: Which TGI does the source give for `CC1(C)COC(c2cccc3c2C(=O)c2cccc(Cl)c2-3)=N1` here?
A: Its TGI is over 100 µM.

Q: With `CN(C)CCC(/C=C/c1ccccc1)=N\Nc1ccccc1` as the compound, how does the TGI read?
A: Its TGI is 4.61 µM.

Q: For `CCOC(=O)c1ccc(/C(C)=N/NC(N)=S)cc1`, which TGI is on record?
A: Its TGI is over 100 µM.

Q: `Cc1cc2c(=O)c3ccccc3[nH]c2c(C(N)=O)c1C` was tested. Which TGI did it give?
A: Its TGI is over 100 µM.

Q: What does the source list for `O=C(Nc1cccc(C(F)(F)F)c1)c1ccc(NC2=C(Cl)C(=O)N(Cc3ccc(Cl)cc3Cl)C2=O)cc1`?
A: GI50: 15.6 µM; TGI: 35.7 µM
